The test has as its system wheat scab (Fusarium culmorum). As to the kind of experiment: Wheat scab (Fusarium culmorum) controlling effect test (preventive effect). The following applies: 500 ppm flowable preparation, foliage spray on wheat (Shirogane komugi), 23° C. high humidity 4 days, then 23° C. greenhouse 3 days. Format: in vivo. As for the experimental part: A plastic pot was charged with a sand loam, and a wheat (Name of plant variety: Shirogane komugi) was seeded, and was grown for 8 days in a greenhouse. Each flowable preparation of the present compound 4 which had been obtained according to Preparation Example 6 was diluted with water to a predetermined concentration (500 ppm) to prepare a spraying solution. Each spraying solution was foliage-sprayed so that the solution was sufficiently adhered to the above adhered to wheat leaves. After spraying, the wheat was air-dried to an extent that the spraying solution on the leaves was dried, then a spore suspension of wheat scab (Fusarium culmorum) (containing about 2000000 spores per 1 ml of the suspension) was spraying-inoculated (at a ratio of about 2 ml per one plant). After inoculation, the wheat was placed at 23° C. under high humidity for 4 days, then placed in a 23° C. greenhouse for 3 days. Thereafter, the controlling effect was investigated.
As a result, an area of a lesion in a plant treated with the present compound 4 was 10% or less of an area of a lesion in a non-treated plant.

For the compound `Cc1cc(O)c(C(=O)Nc2cccnc2)c(=O)n1C` [present compound 4, N-(3-pyridyl)-1,6-dimethyl-4-hydroxy-2-oxo-1,2-dihydropyridine-3-carboxamide], the “area of a lesion in a treated plant relative to area of a lesion in a non-treated plant” value is listed as ≤ 10%.

Source of the values: patent publication US7943638B2, “Carboxamide compound and use of the same” (Sumitomo Chemical Company, Limited, priority 2005, dated 2011).
